In the supplement of paper PMC10307832 one finds relative viability data, which are given here for four cell lines.

Holding throughout (test): relative viability (nuclei count vs DMSO), 5 days (fraction); higher = more cells survive
Compound in the experiment “Neratinib + Foretinib”: CCOc1cc2ncc(C#N)c(Nc3ccc(OCc4ccccn4)c(Cl)c3)c2cc1NC(=O)/C=C/CN(C)C [Neratinib] + COc1cc2c(Oc3ccc(NC(=O)C4(C(=O)Nc5ccc(F)cc5)CC4)cc3F)ccnc2cc1OCCCN1CCOCC1 [Foretinib] (partner 0.25 µM)
In a few lines: (§1)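 Values are medians from duplicate plates. Each reflects relative viability, defined as the nuclei count of treated wells over that of vehicle wells. Lung cancer cell lines in 1536-well plates were pin-tool dosed one day after seeding with one drug alone or with a fixed anchor-drug dose plus five library-drug doses (not always all listed) in √10 steps, then fixed, stained and imaged at 4× after 5 days.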

Compound in the experiment “Neratinib + Pictilisib”: CCOc1cc2ncc(C#N)c(Nc3ccc(OCc4ccccn4)c(Cl)c3)c2cc1NC(=O)/C=C/CN(C)C [Neratinib] + CS(=O)(=O)N1CCN(Cc2cc3nc(-c4cccc5[nH]ncc45)nc(N4CCOCC4)c3s2)CC1 [Pictilisib] (partner 1 µM)
The method, boiled down: as §1

Compound in the experiment “Neratinib + AZD7762”: CCOc1cc2ncc(C#N)c(Nc3ccc(OCc4ccccn4)c(Cl)c3)c2cc1NC(=O)/C=C/CN(C)C [Neratinib] + NC(=O)Nc1cc(-c2cccc(F)c2)sc1C(=O)N[C@H]1CCCNC1 [AZD7762] (partner 0.2 µM)
In a few lines:
as §1

Compound in the experiment “Neratinib + Vorinostat”: CCOc1cc2ncc(C#N)c(Nc3ccc(OCc4ccccn4)c(Cl)c3)c2cc1NC(=O)/C=C/CN(C)C [Neratinib] + O=C(CCCCCCC(=O)Nc1ccccc1)NO [Vorinostat] (partner 1 µM)
The method, boiled down: as §1

In the case of NCI-H2405, the relative viability with Neratinib + Foretinib (first compound 0.01 µM) came out at 1.06; in the experiment with Neratinib + Foretinib (first compound 0.03162 µM), 1.08; with Neratinib + Foretinib (first compound 0.1 µM), 0.922; with Neratinib + Foretinib (first compound 0.3162 µM), 1.04; with Neratinib + Foretinib (first compound 1 µM) it was 0.57; with Neratinib + Pictilisib (first compound 0.01 µM), 0.522. Further, the relative viability with Neratinib + Pictilisib (first compound 0.03162 µM) is 0.547; with Neratinib + Pictilisib (first compound 0.1 µM) it was 0.515; with Neratinib + Pictilisib (first compound 0.3162 µM), 0.399; with Neratinib + Pictilisib (first compound 1 µM), 0.29; with Neratinib + AZD7762 (first compound 0.01 µM), 0.818; with Neratinib + AZD7762 (first compound 0.03162 µM), 0.799. In addition, the relative viability in the experiment with Neratinib + AZD7762 (first compound 0.1 µM) is 0.751; with Neratinib + AZD7762 (first compound 0.3162 µM) it was 0.635; with Neratinib + AZD7762 (first compound 1 µM), 0.446; in the experiment with Neratinib + Vorinostat (first compound 0.01 µM), 1.32; with Neratinib + Vorinostat (first compound 0.03162 µM), 1.18; in the experiment with Neratinib + Vorinostat (first compound 0.1 µM), 0.955. Further, the relative viability in the experiment with Neratinib + Vorinostat (first compound 0.3162 µM) turned out to be 1.04; with Neratinib + Vorinostat (first compound 1 µM), 0.891.

On to HCC-827, for which the relative viability with Neratinib + Foretinib (first compound 0.01 µM) is 1.17; with Neratinib + Foretinib (first compound 0.03162 µM) it was 1.11; in the experiment with Neratinib + Foretinib (first compound 0.1 µM), 0.934; in the experiment with Neratinib + Foretinib (first compound 0.3162 µM) it was 0.186; in the experiment with Neratinib + Foretinib (first compound 1 µM) it was 0.173; with Neratinib + Pictilisib (first compound 0.01 µM) it was 0.872. The relative viability stood at 0.88 with Neratinib + Pictilisib (first compound 0.03162 µM); 0.73 with Neratinib + Pictilisib (first compound 0.1 µM); 0.623 in the experiment with Neratinib + Pictilisib (first compound 0.3162 µM); 0.219 with Neratinib + Pictilisib (first compound 1 µM); 0.217 with Neratinib + AZD7762 (first compound 0.01 µM); 0.236 with Neratinib + AZD7762 (first compound 0.03162 µM). For the same cell line, the relative viability came to 0.132 in the experiment with Neratinib + AZD7762 (first compound 0.1 µM); 0.129 with Neratinib + AZD7762 (first compound 0.3162 µM); 0.132 with Neratinib + AZD7762 (first compound 1 µM); 0.929 with Neratinib + Vorinostat (first compound 0.01 µM); 0.975 with Neratinib + Vorinostat (first compound 0.03162 µM); 0.817 with Neratinib + Vorinostat (first compound 0.1 µM). Further, the relative viability turned out to be 0.395 with Neratinib + Vorinostat (first compound 0.3162 µM) and 0.205 with Neratinib + Vorinostat (first compound 1 µM).

With NCI-H322M, the relative viability in the experiment with Neratinib + Foretinib (first compound 0.01 µM) amounted to 0.863; with Neratinib + Foretinib (first compound 0.03162 µM) it was 0.958; with Neratinib + Foretinib (first compound 0.3162 µM) it was 0.408; with Neratinib + Foretinib (first compound 1 µM) it was 0.361; with Neratinib + Pictilisib (first compound 0.01 µM), 0.528; with Neratinib + Pictilisib (first compound 0.03162 µM), 0.455. Further, the relative viability was found to be 0.499 with Neratinib + Pictilisib (first compound 0.1 µM); 0.333 in the experiment with Neratinib + Pictilisib (first compound 0.3162 µM); 0.327 in the experiment with Neratinib + Pictilisib (first compound 1 µM); 0.49 in the experiment with Neratinib + AZD7762 (first compound 0.01 µM); 0.544 with Neratinib + AZD7762 (first compound 0.03162 µM); 0.503 in the experiment with Neratinib + AZD7762 (first compound 0.1 µM). Further, the relative viability in the experiment with Neratinib + AZD7762 (first compound 0.3162 µM) is 0.409; with Neratinib + AZD7762 (first compound 1 µM), 0.437; with Neratinib + Vorinostat (first compound 0.01 µM) it was 0.98; with Neratinib + Vorinostat (first compound 0.03162 µM) it was 0.859; with Neratinib + Vorinostat (first compound 0.1 µM), 0.822; in the experiment with Neratinib + Vorinostat (first compound 0.3162 µM), 0.524. In addition, the relative viability with Neratinib + Vorinostat (first compound 1 µM) worked out at 0.445.

As to HOP-62, the relative viability with Neratinib + Foretinib (first compound 0.01 µM) is 1.16; in the experiment with Neratinib + Foretinib (first compound 0.03162 µM) it was 1.08; with Neratinib + Foretinib (first compound 0.1 µM), 0.982; with Neratinib + Foretinib (first compound 0.3162 µM), 1.14; with Neratinib + Foretinib (first compound 1 µM), 0.92; in the experiment with Neratinib + Pictilisib (first compound 0.01 µM), 0.677. The relative viability with Neratinib + Pictilisib (first compound 0.03162 µM) came out at 0.826; with Neratinib + Pictilisib (first compound 0.1 µM), 0.691; with Neratinib + Pictilisib (first compound 0.3162 µM), 0.669; with Neratinib + Pictilisib (first compound 1 µM), 0.52; with Neratinib + AZD7762 (first compound 0.01 µM), 0.672; with Neratinib + AZD7762 (first compound 0.03162 µM), 0.525. Also, the relative viability with Neratinib + AZD7762 (first compound 0.1 µM) stood at 0.559; with Neratinib + AZD7762 (first compound 1 µM), 0.443; with Neratinib + Vorinostat (first compound 0.01 µM), 0.608; with Neratinib + Vorinostat (first compound 0.03162 µM), 0.691; with Neratinib + Vorinostat (first compound 0.1 µM), 0.586; in the experiment with Neratinib + Vorinostat (first compound 1 µM), 0.72.
